The numbers were not newly measured in patent publication US9662344B2, “Carnitine retention” (The University of Nottingham, priority 2003, dated 2017), which cites them from elsewhere.

Each structure is given as a SMILES string. Where two headings read alike, the source gives them in different places.

Series [1] deals with skeletal muscle carnitine uptake. The settings on record: isolated cells (Georges et al., 2000).
Assay in series [2]: not given
This is another data set of the same source.

The mark [3] stands for this setting: oral doses of L-carnitine between 2 and 6 g.

As for `C[N+](C)(C)C[C@H](O)CC(=O)[O-]` [L-carnitine], where the note is “above this the excess is excreted in urine”, the “plasma carnitine concentration of maximum renal reabsorption” value was 60 to 100 µmol/L. Moreover, under setting [3], the bioavailability entry was “less than 20%”. Also, the “time of peak plasma concentrations after ingestion” value under setting [3] is recorded as ~3 h. In series [1], the Km (commonly the concentration of substrate that gives half-maximal velocity) is 6.4 µM. The “resting skeletal muscle carnitine content” value in series [2] (6 g every day for up to 2 weeks (Vukovich et al 1994)) is listed as “no significant increase”. Further, the VO2 max entry was “slight but significant increase” in series [2] (competitive walkers, oral 4 g every day for 2 weeks (Marconi et al 1985)) and “increase” in series [2] (single dose 2 g orally an hour before exercise (Vecchiet et al 1990)). Also, the “effect on VO2 max, RQ, maximal exercise, fatty acid utilisation, glucose utilisation, lactate, perceived exertion, or heart rate” value in series [2] (oral 3-5 g L-carnitine over 5-28 days) was “no effect”.
